# Experimental data reported in patent US20250017881A1, “Fatty acids for ketosis control” (N.V. Nutricia, priority 2022, published 2025).
# “Also recorded” adds a separate entry of the source.
# Tests used:
# Format in all cases: cell-based
# [1] = tested on: mouse liver cells (Hepa1-6 cell line); assay: Ketone production (beta-hydroxybutyrate in medium) by mouse liver cells; conditions: for beta-hydroxybutyrate production, fatty acid provided alone: provided alone to liver cells at 1 μM, 5 μM and 10 μM, 6 h ketogenic phase; for beta-hydroxybutyrate production when combined with 100 μM OA, versus 100 μM OA alone: test fatty acid 1 μM to 10 μM (1, 5, 10 μM) + 100 μM oleic acid; for production of ketones from 100 μM fatty acid blend (K-one): test fatty acid within 1 μM to 10 μM + 100 μM fatty acid blend; for ketone production in the absence of a ketogenic fat blend: 5 μM each, alone or in combination
# Method: An assay to measure ketone production in mouse liver cells (Hepa1-6 cell line) was used wherein cells were first grown to a monolayer (growth phase), then exposed to starvation to deplete cellular lipid stores and subsequently brought into a ketogenic phase wherein cells were cultured in presence of oleic acid or a ketogenic diet fat blend with or without the presence of one of C2, C4, C6 fatty acids, citrate and nicotinamide riboside (herein also referred to as C2, C4, C6, citrate and NR). The ketone body production was subsequently determined by measurement of beta-hydroxybutyrate in the cell culture medium according to the details set out below:
# Starvation phase: At the end of the growth phase the cells formed a monolayer. The medium was exchanged for DMEM containing 1 mM glucose and antibiotics (1% penicillin & streptomycin) but no FBS. The medium was further supplemented with L-carnitine (a required co-factor for the uptake of fatty acids into the mitochondria, where fatty acids are turned into ketones). The cells were incubated in this medium for 24 hours. During this time, the cells were vastly deprived of glucose, lipids and hormones contained in FBS, forcing them to consume and empty their lipid stores. […] Moreover, the starvation phase is thought to induce specific metabolic changes that maximize the production of ketones.
# Ketogenic phase: At the end of the starvation phase, the medium was exchanged for Krebs-Henseleit buffer (KHB) supplemented with the test nutrients (single fatty acids and fatty acid blend shown in table 1) and L-carnitine.
# The fatty acid blend is contained in a similar fatty acid composition to the one used in a ketogenic diet (K-one). The content of every fatty acid in the blend is given as the molar ratio to Oleic acid (OA), whose molar content is set to 1. Dilutions of this blend were used to determine the dose response curve in FIGS. 1B and 1D. C2 and C4 are not included in the blend.
# KHB is composed of salts and bicarbonate as a chemical buffer to maintain the osmotic pressure and acidity (pH) at physiological levels. Medium and long chain fatty acids are coupled to bovine serum albumin prior to the assay to make them soluble in KHB and allow their efficient uptake by the cells. The coupling is physiological since in humans, medium and long chain fatty acids are also normally coupled to albumin for transport in the blood circulation. Short chain fatty acids (C2, C4) were not coupled to albumin in the assay since they are water-soluble and circulate freely in humans. The cells were incubated for 6 hours at 37° C. During this time, they produce ketones from the test nutrients with little to no interference from other nutrients and secrete β-hydroxybutyrate (β-Hb) into the medium.
# β-Hb measurements: At the end of the ketogenic phase, the whole medium was collected and dried by vacuum centrifugation for 20 hours at 21° C. The dry pellet was resuspended in a small volume of assay buffer to yield a 10-20-fold higher β-Hb concentration than in the medium. The samples were deproteinized using spin columns to measure the free unbound fraction of R-Hb. […] The Fluorescence was measured on a fluorescence microplate reader and is directly proportional to the β-Hb concentration in the sample within a range of 0.1 μM to 50 μM β-Hb.
# [2] = tested on: mouse liver cells (Hepa1-6 cell line); assay: Propionate viability assay (ATP content, bioluminescence)
# Method: Starvation phase: At the end of the growth phase the cells formed a monolayer. The medium was exchanged for DMEM containing 1 mM glucose and antibiotics (1% penicillin & streptomycin) but no FBS. The medium was further supplemented with L-carnitine (a required co-factor for the uptake of fatty acids into the mitochondria, where fatty acids are turned into ketones). […] The cells were incubated in this medium for 24 hours.
# [3] = tested on: NAD+ depleted mouse liver cells (Hepa1-6 cells); assay: NAD+ replenishment of NAD+ depleted liver cells by NAD+ precursors
# Method: An assay was developed to measure NAD+ replenishment of NAD+ depleted mouse liver cells (Hepa1-6 cells) by NAD+ precursors under ketogenic diet-like conditions. In this assay, mouse liver cells were starved of glucose and depleted of NAD+ through incubation in a very low glucose (1 mM) medium free of vitamin B3, Trp and FBS and supplemented with 10 nM of an NAD+ depleting drug called FK866. Thereafter, the cells were fed with NR or NAM or Niacin (provided as a combination of NAM and nicotinic acid in a 1:1 molar ratio) or Trp to replenish the cells with NAD+. At the end of the supplementation phase, the cells were scraped and extracted using the NAD+ extraction buffer of the EnzyChrom™ NAD/NADH Assay Kit from BioAssay Systems. The NAD+ content of the cells was determined with the same kit following the manufacturer's manual. The NAD+ measurement is based on a […] reaction, in which NAD+ is reduced to NADH, which in turn reduces a formazan (MTT) reagent. The intensity of the reduced product color, measured at 565 nm, is proportional to the NAD+ concentration in the sample. This assay is highly specific for NAD+ and has minimal interference (<1%) by NADP+ or NADPH.
# [4] = tested on: NAD+ depleted mouse liver cells; assay: Ketone production of NAD+ depleted liver cells replenished with NR; conditions: NR 10 μM
# Method: To measure the impact of replenishing NAD+ in liver cells with NR on ketone production, mouse liver cells were nutrient-deprived in medium containing low (1 mM) glucose and L-carnitine, but no fetal bovine serum, and no NAD+ precursors in the form of vitamin B3 (Niacin, NA, NAM) or Trp, Concomitantly the cells were treated with the NAD+ depleting drug FK866. These conditions created ketogenic diet like nutrient conditions and depleted the cells of NAD+. After 18 hours of incubation, FK866 was removed from the medium and a concentration range of NR was added to replenish NAD+ in liver cells. After 24 hours, the cells were switched to Krebs-Henseleit buffer (KHB) containing L-carnitine and a concentration range (1 μM to 100 μM) of oleic acid, a long chain fatty acid, for 6 hours to induce and measure the production and secretion of b-hydroxybutyrate (PHB) into the medium.
compound,measurement,setting,value
"CC(=O)O [C2, acetic acid]","beta-hydroxybutyrate production when combined with 100 μM fatty acid blend, versus blend alone",[1]; 1 μM or 10 μM C2 + 100 μM fatty acid blend (K-one),slightly greater production of PHb
same,"beta-hydroxybutyrate production, fatty acid provided alone",[1],does not yield any ketones
same,"beta-hydroxybutyrate production, fatty acid provided alone",[1]; listed as 02,virtually no bHB
same,"beta-hydroxybutyrate production when combined with 100 μM OA, versus 100 μM OA alone",[1],more PHb than 100 μM OA alone; also recorded: enhances the production of ketones
same,production of ketones from 100 μM fatty acid blend (K-one),[1],enhances the production of ketones
"CCC(=O)O [C3, propionic acid]","cytotoxicity, long-term assessment","[2]; 300 uM to 10 mM C3, 24-hour starvation plus 6-hour ketogenic phase",evident for the entire dose-range
same,"cytotoxicity, short-term exposure","[2]; 10 mM C3, 6-hours of exposure (ketogenic phase)",Cytotoxicity was already noted
same,cytotoxicity (ATP content) over the concentration range,[2]; C3 to 10 mM as printed,dose-dependent increase in cytotoxicity
same,reduction of beta-hydroxybutyrate yield compared to 100 μM fatty acid blend alone,"[1]; 1 μM, 5 μM and 10 μM C3 + 100 μM fatty acid blend",more than 60%
same,"beta-hydroxybutyrate production, fatty acid provided alone",[1],yielded no PHb
same,"beta-hydroxybutyrate production when combined with 100 μM OA, versus 100 μM OA alone",[1],less PHb than 100 μM OA alone; also recorded: inhibits the top-level production of ketones
same,production of ketones from 100 μM fatty acid blend (K-one),[1],dose-dependent manner; also recorded: inhibits the top-level production of ketones
"CCCC(=O)O [C4, butyric acid]",ketone production in the absence of a ketogenic fat blend,[1]; no fat blend,hardly any ketones
same,"beta-hydroxybutyrate production when combined with 100 μM fatty acid blend, versus blend alone",[1]; 10 μM C4 + 100 μM fatty acid blend (K-one),more βHb than providing the 100 μM fatty acid blend alone
same,ketone production from a concentration range of fatty acid blend,"[1]; fixed 10 μM C4 + 1 μM to 100 μM fatty acid blend (K-one), versus blend without C4",increasingly enhanced the production of ketones
same,"beta-hydroxybutyrate production, fatty acid provided alone",[1],hardly yielded any PHb
same,"beta-hydroxybutyrate production when combined with 100 μM OA, versus 100 μM OA alone",[1],more PHb than providing 100 μM OA alone; also recorded: potentiates the production of ketones
same,production of ketones from 100 μM fatty acid blend (K-one),[1],potentiates the production of ketones
"CCCCCC(=O)O [C6, caproic acid]",ketone production in the absence of a ketogenic fat blend,[1]; no fat blend,hardly any ketones
same,concentration above which the fatty acid starts to be turned as a substrate into beta-hydroxybutyrate,"[1]; dose-response curve of the fatty acid alone, 1 μM to 100 μM",above 10 μM
same,"beta-hydroxybutyrate production when combined with 100 μM OA, versus 100 μM OA alone",[1],potentiates the production of ketones
same,production of ketones from 100 μM fatty acid blend (K-one),[1],potentiates the production of ketones
"O=C(/C=C/c1cccnc1)NCCCCC1CCN(C(=O)c2ccccc2)CC1 [FK866, reference compound]",depletion of NAD+ relative to baseline NAD+ content of untreated liver cells,"[3]; 10 nM FK866, very low glucose medium",~70%
"NC(=O)c1ccc[n+]([C@@H]2O[C@H](CO)[C@@H](O)[C@H]2O)c1 [NR, nicotinamide riboside]",top-level production of ketones,"[4]; 150 μM and 1000 μM for 24 h, then oleic acid 1 μM to 100 μM for 6 h",increased
same,NAD+ content,"[4]; 150 μM and 1000 μM, ketogenic diet like nutrient conditions",increased
same,increase of NAD+ content versus equimolar amounts of NAM or Niacin,[3]; 1 mM,significantly greater extent
same,increase of NAD+ content versus equimolar amounts of Niacin,[3]; lower concentrations below 150 μM,greater extent
same,NAD+ content of NAD+ depleted liver cells after provision,"[3]; within 24 hours of treatment, concentration range",dose-dependently replenishes NAD+ content to and above this baseline
"CCCCCCCC/C=C\CCCCCCCC(=O)O [OA, oleic acid, reference compound]",concentration at which top-level (maximized) ketone production is achieved,"[1]; ketogenic substrate alone, dose-response curve",100 µM
O=C(O)CC(O)(CC(=O)O)C(=O)O [citrate],increase of ketone production from the fat blend,[1]; 200 μM to 1000 μM citrate + 100 μM fatty acid blend (K-one),10-20%
same,"ketone production, citrate provided alone","[1]; citrate alone, no fat blend",yielded no ketones
